Results on 4 compounds are retold here after patent publication US20210381051A1, “DNA METHYLATION BIOMARKER OF AGING FOR HUMAN EX VIVO AND IN VIVO STUDIES” (The Regents of the University of California, priority 2018, published 2021).

In test [1] the test system is primary human keratinocytes. The test is described as follows: Keratinocyte proliferation rate and proliferative capacity (population doublings). Particulars: rapamycin 25 nM, Y-27632 1 μM. Format: cell-based. The source says:
The availability of an epigenetic clock, such as the skin & blood clock, which is applicable to cultured cells, allows epigenetic ageing to be studied beyond the purely descriptive nature afforded by epidemiological analyses alone. Towards this end, we have established in vitro epigenetic ageing systems using primary human cells. One of this is based on primary keratinocytes that are derived from healthy human skins. […] The opposing effects of these compounds on keratinocyte proliferation present us with the opportunity to test whether cellular proliferation rate impacts epigenetic ageing while carrying out our primary aim of interrogating the effects of rapamycin on epigenetic ageing.
(§1) Primary keratinocytes were isolated from human neonatal foreskins from three donors (Donor A, B and C) and were put in culture with standard media or media supplemented with rapamycin, Y-27632 or a cocktail of both of these compounds (methods). The cells were passaged continually and population doublings at each passage recorded. […] DNA methylation profiles from a selection of passages of these cells were obtained and analysed with the skin & blood clock. […]
(§2) Primary human neonatal fibroblasts were isolated from circumcised foreskins. […] Upon confluence, cells were trypsinised, counted and 100,000 were seeded into fresh fibronectin/collagen-coated plates. […]

Test [2] relates to primary human keratinocytes from neonatal foreskins. The test is described as follows: Ex vivo human cell aging assay: DNAm age of cultured keratinocytes by the skin & blood clock. The test is classed as cell-based.
Excerpt: (§3) FIG. 6. Ex vivo study of compounds that may accelerate or decelerate epigenetic aging. A) Effect of Y-27632 and rapamycin treatment on neonatal keratinocytes measured by the skin & blood clock. B) Effect of oestrogen on neonatal dermal fibroblasts.
(§4) By its ability to quantitatively track aging of human cells ex vivo, the skin & blood clock lends itself to be used in the development of an ex vivo human cell aging assay that can be used for testing and screening compounds with anti-aging or pro-aging effects.
as §1, with “recorded. In time all cells, regardless of donor or treatment underwent replicative senescence, where they ceased to increase their numbers after at least 2 weeks in culture with regular replenishment of media.” for “recorded.”
as §2

Test [3] relates to HGPS patients. Conditions: after 2.2 years of follow-up, 27% death in the matched untreated group; cited from earlier work.
Test [4] relates to progerin accumulation in HGPS cells. Conditions: in vitro studies [41, 42]; cited from earlier work.
The test system of test [5] is neonatal dermal fibroblasts. The test is described as follows: Ex vivo epigenetic aging of fibroblasts by the skin & blood clock. Format: cell-based, human. Particulars: suggestive evidence.
Excerpt: as §3, §4

Consider `C[C@@H](N)[C@H]1CC[C@H](C(=O)Nc2ccncc2)CC1` [Y-27632], for which the “cellular proliferation rate (population doublings per unit of time)” value in test [1] is recorded as “increases it”. For the same compound, the “epigenetic aging (skin & blood clock), FIG. 6A” value in test [2] (Example 1, dividing / neonatal keratinocytes, suggestive evidence) is “appears to increase epigenetic aging”. The “epigenetic ageing (skin & blood clock)” value in test [2] (Example 2, neonatal foreskin keratinocytes of three donors, CnT-07 medium, rapamycin 25 nM, Y-27632 1 μM, present for the entire duration) was “did not impose any appreciable effect”.

Turning to `NC(=O)N1CCC(CC(=O)N2CCC([C@H]3c4ncc(Br)cc4CCc4cc(Cl)cc(Br)c43)CC2)CC1` [lonafarnib], in test [3], the “death in the treated group” value was 6.3%.

With `CN(C)C(=N)N=C(N)N` [metformin], the “progerin accumulation and cellular HGPS phenotypes” value in test [4] is “reduction of progerin accumulation”.

estrogen: in test [5], the “epigenetic aging (skin & blood clock), FIG. 6B” value is given as “associated with slower epigenetic aging”.
